The values below come from patent publication US5650428A, “Arylsulfonamide derivative and pharmaceutical compositions and use thereof” (NKK Corporation, priority 1993, dated 1997).

For assay [1], the target named is T1, thromboxane A2 (TxA2) receptor (Cavia porcellus, UniProt A0A286Y4I8).
T1 construct: to obtain washed platelets; from tissue; host or cells: washed platelets of male Hartley guinea pigs
T1 sequence (A0A286Y4I8 1-347): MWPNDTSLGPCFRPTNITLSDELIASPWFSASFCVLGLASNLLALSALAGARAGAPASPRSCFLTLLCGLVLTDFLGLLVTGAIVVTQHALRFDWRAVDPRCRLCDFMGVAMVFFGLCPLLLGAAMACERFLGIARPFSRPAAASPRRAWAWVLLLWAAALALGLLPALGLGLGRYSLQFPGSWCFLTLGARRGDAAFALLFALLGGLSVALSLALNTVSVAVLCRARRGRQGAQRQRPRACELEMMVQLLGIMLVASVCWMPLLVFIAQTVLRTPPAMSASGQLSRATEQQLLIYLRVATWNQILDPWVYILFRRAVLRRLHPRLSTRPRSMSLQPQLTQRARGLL
The assay is described as follows: TxA2 antagonist action by binding assay. The following applies: washed guinea pig platelets, 1 nM [3H]-SQ29,548, 45 minutes at 25° C. How it is done:
(1) TxA2 antagonist action by binding assay Guinea pigs (Hartley; male; body weight=approximately 500 g) were anesthetized with ether, and the blood was collected into sodium citrate (final concentration=0.38%). The preparation of platelets was carried out at room temperature. The platelet rich plasma was obtained by centrifugation at 980 rpm for 10 minutes. One tenth (1/10) amount of 77 mM-EDTA-Na (pH 7.4) was added to the platelet rich plasma, and the mixture was centrifuged for 10 minutes at 3000 rpm. The suspension was again centrifuged at 3000 rpm for 10 minutes. The precipitate was further resuspended in a suspension buffer (2) shown in Table 2 to obtain washed platelets. The number of platelets was counted by an automatic blood cell counter (Sysmex Microcellcounter F-800) and the sample was diluted with the suspension buffer to 4×10^8 cells/ml. The platelets, sample solution and labeled compounds were placed into plastic tubes in amounts (volumes) shown in the following Table 3, incubated for 45 minutes at 25° C., and then the mixture was filtered using a cell harvester (Brandel cell harvester M-24R) by a glass fiber filter (Whatman GF/B). After the filter was sufficiently dried, the scintillation was counted by a scintillation counter (Beckman LS5000TD). IC50 was calculated from (binding)/(control binding) ratio in the presence of an antagonist. [table 3: the next 10 blocks are its lines as printed, fixed-width]

The next assay has as its system rat platelet. Nature of the assay: Inhibitory activity of aggregation in rat platelet. The class given is cell-based. As to conditions: rat platelet rich plasma, arachidonic acid (final concentration 0.5 mM) as inducer; read-out: C: Inhibitory activity of aggregation in rat platelet (IC50; μM). How it is done: (3) Inhibitory Activity of Aggregation in Rat Platelet The abdomen of etherized rat was open, and blood was taken from the abdominal arteries, using a sodium citrate solution (final concentration was 0.38%). The blood was centrifuged at 1100 rpm for 10 minutes, and the supernatent was separated as the platelet rich plasma. The plasma was further centrifuged at 2000 rpm for 15 minutes to obtain the supernatent as a platelet poor plasma. The platelet rich plasma (280 μl) was placed in a measuring cuvette and preincubated for 1 minute at 37° C. Then, a sample solution (10 μl) was added. After 2 minutes, an arachidonic acid solution (final concentration=0.5 mM) (10 μl) was added as an inducer. The change in light transmission was recorded for 5 minutes.

Counter-ions that a name gives are not always drawn.

For `O=C(O)Cc1cccc(NC(=O)C(COC2CCCCO2)NS(=O)(=O)c2ccc(Cl)cc2)c1` (racemic) [Example 45, (RS)-N-(3-(carboxymethyl)phenyl)-2-(4-chlorobenzenesulfonylamino)-3-(tetrahydropyran-2-yloxy)propanamide], the IC50 in assay [1] amounted to 0.42 µM; with rat platelet, 3.6 µM.

`O=C(O)CCc1cccc(NC(=O)C(COC2CCCCO2)NS(=O)(=O)c2ccc(Cl)cc2)c1` (racemic) [Example 46, (RS)-N-(3-(carboxyethyl)phenyl)-2-(4-chlorobenzenesulfonylamino)-3-(tetrahydropyran-2-yloxy)propanamide]: the figures for the IC50 (in assay [1]; in the assay on rat platelet) were 0.11 µM and 1.7 µM, respectively.

Consider `O=C(O)CCCNC(=O)C(COC1CCCCO1)NS(=O)(=O)c1ccc(Cl)cc1` (racemic) [Example 47, (RS)-N-(3-carboxypropyl)-2-(4-chlorobenzenesulfonylamino)-3-(tetrahydropyran-2-yloxy)propanamide], for which the IC50 in the assay with rat platelet was 1.5 µM.

For the compound `O=C(O)CCCCNC(=O)C(COC1CCCCO1)NS(=O)(=O)c1ccc(Cl)cc1` (racemic) [Example 48, (RS)-N-(4-carboxybutyl)-2-(4-chlorobenzenesulfonylamino)-3-(tetrahydropyran-2-yloxy)propanamide], the IC50 with rat platelet is 1.7 µM.

In the case of `O=C(O)CCCCCNC(=O)C(COC1CCCCO1)NS(=O)(=O)c1ccc(Cl)cc1` (racemic) [Example 49, (RS)-N-(5-carboxypentyl)-2-(4-chlorobenzenesulfonylamino)-3-(tetrahydropyran-2-yloxy)propanamide], the IC50 in assay [1] came out at 1.7 µM; in the assay with rat platelet it was 0.4 µM.

`O=C(O)CCCCCCNC(=O)C(COC1CCCCO1)NS(=O)(=O)c1ccc(Cl)cc1` (racemic) [Example 50, (RS)-N-(6-carboxyhexyl)-2-(4-chlorobenzenesulfonylamino)-3-(tetrahydropyran-2-yloxy)propanamide]: the values for the IC50 (in assay [1]; with rat platelet) were 1 µM and 1.75 µM, respectively.

On to `O=C(O)Cc1ccc(NC(=O)C(COC2CCCCO2)NS(=O)(=O)c2ccccc2)cc1` (racemic) [Example 52, (RS)-2-(benzenesulfonylamino)-N-(4-(carboxymethyl)phenyl)-3-(tetrahydropyran-2-yloxy) propanamide], for which the IC50 in assay [1] came to 2.2 µM; in the assay with rat platelet, 1.7 µM.

As for `O=C(O)Cc1ccc(NC(=O)C(COC2CCCCO2)NS(=O)(=O)c2ccc(F)cc2)cc1` (racemic) [Example 53, (RS)-N-(4-(carboxymethyl)phenyl)-2-(4-fluorobenzenesulfonylamino)-3-(tetrahydropyran-2-yloxy)propanamide], the IC50 in assay [1] was determined as 0.2 µM; in the assay on rat platelet it was 0.53 µM.

Take `Cc1ccc(S(=O)(=O)NC(COC2CCCCO2)C(=O)Nc2ccc(CC(=O)O)cc2)cc1` (racemic) [Example 56, (RS)-N-(4-(carboxymethyl)phenyl)-2-(4-methylbenzenesulfonylamino)-3-(tetrahydropyran-2-yloxy)propanamide]: the IC50 in assay [1] came to 0.3 µM; in the assay on rat platelet, 1.7 µM.

On to `O=C(O)CCCCCNC(=O)C(Cn1ccnc1)NS(=O)(=O)c1ccc(Cl)cc1` (racemic) [Example 100, (RS)-N-(5-carboxypentyl)-2-(4-chlorobenzenesulfonylamino)-3-(1H-imidazol-1-yl)propanamide hydrochloride], for which the IC50 in the assay with rat platelet is 1.7 µM.

For `O=C(O)CCCCNC(=O)C(COc1cccnc1)NS(=O)(=O)c1ccc(Cl)cc1` (racemic) [Example 119, (RS)-N-(4-carboxybutyl)-2-(4-chlorobenzenesulfonylamino)-3-(pyridin-3-yloxy)propanamide hydrochloride], the IC50 in the assay with rat platelet amounted to 1.7 µM.

For the compound `CCC(NS(=O)(=O)c1ccc(Cl)cc1)C(=O)Nc1ccc(CC(=O)O)cc1` (racemic) [Example 220, (RS)-N-(4-(carboxymethyl)phenyl)-2-(4-chlorobenzenesulfonylamino) butanamide], in the assay on rat platelet, the IC50 worked out at 0.53 µM.

For `CCCC(NS(=O)(=O)c1ccc(Cl)cc1)C(=O)Nc1ccc(CC(=O)O)cc1` (racemic) [Example 221, (RS)-N-(4-(carboxymethyl)phenyl)-2-(4-chlorobenzenesulfonylamino)pentanamide], in the assay on rat platelet, the IC50 was found to be 0.53 µM.

With `CCCCC(NS(=O)(=O)c1ccc(Cl)cc1)C(=O)Nc1ccc(CC(=O)O)cc1` (racemic) [Example 222, (RS)-N-(4-(carboxymethyl)phenyl)-2-(4-chlorobenzenesulfonylamino)hexanamide], in the assay with rat platelet, the IC50 is 0.17 µM.

Consider `CCCCCCC(NS(=O)(=O)c1ccc(Cl)cc1)C(=O)Nc1ccc(CC(=O)O)cc1` (racemic) [Example 230, (RS)-N-(4-(carboxymethyl)phenyl)-2-(4-chlorobenzenesulfonylamino)octanamide], for which the IC50 in the assay on rat platelet stood at 0.55 µM.

`CC(C)C(NS(=O)(=O)c1ccc(Cl)cc1)C(=O)Nc1ccc(CC(=O)O)cc1` (racemic) [Example 231, (RS)-N-(4-(carboxymethyl)phenyl)-2-(4-chlorobenzenesulfonylamino)-3-methylbutanamide]: the IC50 with rat platelet worked out at 1.7 µM.

`CSCCC(NS(=O)(=O)c1ccc(Cl)cc1)C(=O)Nc1ccc(CCC(=O)O)cc1` (racemic) [Example 236, (RS)-N-(4-(2-carboxyethyl)phenyl)-2-(4-chlorobenzenesulfonylamino)-4-methylthiobutanamide] gave an IC50 in assay [1] of 0.42 µM.

Take `O=C(O)CCc1ccc(NC(=O)C(CC2CCCCC2)NS(=O)(=O)c2ccc(Cl)cc2)cc1` (racemic) [Example 261, (RS)-N-(4-(2-carboxyethyl)phenyl)-2-(4-chlorobenzenesulfonylamino)-3-cyclohexylpropanamide]: the IC50 in the assay with rat platelet is 2.3 µM.

For `CCCC[C@H](NS(=O)(=O)c1ccc(Cl)cc1)C(=O)Nc1ccc(CCC(=O)O)cc1` [Example 225, (S)-N-(4-(2-carboxyethyl)phenyl)-2-(4-chlorobenzenesulfonylamino)hexanamide], the IC50 with rat platelet stood at 0.56 µM.

`CCCC[C@H](NS(=O)(=O)c1ccc(Br)cc1)C(=O)Nc1ccc(CC(=O)O)cc1` [Example 227, (S)-2-(4-bromobenzenesulfonylamino)-N-(4-(carboxymethyl)phenyl)hexanamide]: the IC50 in assay [1] was found to be 0.045 µM.

`CCCC[C@H](NS(=O)(=O)c1ccc(Br)cc1)C(=O)Nc1ccc(CCC(=O)O)cc1` [Example 228, (S)-2-(4-bromobenzenesulfonylamino)-N-(4-(2-carboxyethyl)phenyl)hexanamide] registered an IC50 in assay [1] of 0.057 µM.

Take `CCSCC[C@H](NS(=O)(=O)c1ccc(Cl)cc1)C(=O)Nc1ccc(CC(=O)O)cc1` [Example 243, (S)-N-(4-(carboxymethyl)phenyl)-2-(4-chlorobenzenesulfonylamino)-4-ethylthiobutanamide]: in the assay with rat platelet, the IC50 is 0.17 µM.

On to `CCSCC[C@H](NS(=O)(=O)c1ccc(Br)cc1)C(=O)Nc1ccc(CC(=O)O)cc1` [Example 245, (S)-2-(4-bromobenzenesulfonylamino)-N-(4-(carboxymethyl)phenyl)-4-ethylthiobutanamide], for which the IC50 in the assay on rat platelet came to 0.055 µM.

The compound `CCSCC[C@H](NS(=O)(=O)c1ccc(Br)cc1)C(=O)Nc1ccc(CCC(=O)O)cc1` [Example 246, (S)-2-(4-bromobenzenesulfonylamino)-N-(4-(2-carboxyethyl)phenyl)-4-ethylthio-butanamide] returned an IC50 in assay [1] of 0.034 µM.

`O=C(O)Cc1ccc(NC(=O)[C@@H](Cc2ccccc2)NS(=O)(=O)c2ccc(Br)cc2)cc1` [Example 253, (R)-2-(4-bromobenzenesulfonylamino)-N-(4-(carboxymethyl)phenyl)-3-phenylpropanamide] had an IC50 in assay [1] of 1.3 µM.

As for `O=C(O)c1ccc(NC(=O)[C@H](Cc2ccccc2)NS(=O)(=O)c2ccc(Br)cc2)cc1` [Example 256, (S)-2-(4-bromobenzenesulfonylamino)-N-(4-carboxyphenyl)-3-phenylpropanamide], the IC50 with rat platelet was determined as 0.17 µM.

For `O=C(O)Cc1ccc(NC(=O)[C@H](Cc2c[nH]c3ccccc23)NS(=O)(=O)c2ccc(Cl)cc2)cc1` [Example 258, (S)-N-(4-(carboxymethyl)phenyl)-2-(4-chlorobenzenesulfonylamino)-3-(3-indolyl) propanamide], the IC50 with rat platelet is 0.53 µM.
